This note sets out measurements from article PMC12689286, “Enhanced therapeutics of cabazitaxel via polycarboxylate conjugation: improved solubility, safety, and antitumor efficacy” (Frontiers in Immunology, 2025).

One data set deals with Bel-7402. Description: MTS cytotoxicity, Bel-7402. Format: cell-based. The conditions noted are these: Homo sapiens; Bel-7402, MTS. The procedure:
(§1) Human cancer cell lines were cultured in basic medium (10% fetal bovine serum (FBS)+1% double antibody solution) (Biological Industries) at 37°C in a 5% CO2 incubator. Effects of CTXs on cell proliferation and viability were measured by an MTS (Promega Corporation) assay. Absorbance values at 490 nm were measured using a microplate reader (Thermo Scientific, Varioskan Flash) ([22]).

A further data set concerns DU145. Description: MTS cytotoxicity, DU145. Format: cell-based. The conditions noted are these: Homo sapiens, DU-145. The procedure: as §1
In another data set the test system is Fadu. Description: MTS cytotoxicity, Fadu. In kind it is cell-based. Conditions: Homo sapiens. The procedure: as §1
The test system of another data set is H358. Briefly: MTS cytotoxicity, H358. Format: cell-based. Conditions: Homo sapiens, NCI-H358. The procedure: as §1
Another data set deals with H460. Description: MTS cytotoxicity, H460. Conditions: Homo sapiens, NCI-H460. Format: cell-based. The procedure:
as §1

The next data set concerns H520. Briefly: MTS cytotoxicity, H520. Format: cell-based. The conditions noted are these: Homo sapiens, NCI-H520. On the procedure: as §1
In another data set the test system is HT-29. Briefly: MTS cytotoxicity, HT-29. Format: cell-based. Conditions: Homo sapiens; HT-29, MTS. The procedure:
as §1

The test system of another data set is LN229. Briefly: MTS cytotoxicity, LN229. The conditions noted are these: Homo sapiens, LN-229. Format: cell-based. On the procedure: as §1
The test system of another data set is MCF-7. Description: MTS cytotoxicity, MCF-7. In kind it is cell-based. Conditions: Homo sapiens, MCF7; MCF-7, MTS. On the procedure: as §1
A further data set deals with PC-3. Description: MTS cytotoxicity, PC-3. In kind it is cell-based. Conditions: Homo sapiens; PC-3, MTS. The procedure:
as §1

Another data set relates to L-02. Description: MTS cytotoxicity, L-02 (non-tumor). In kind it is cell-based. Conditions: Homo sapiens, L02, L-02 non-tumor cell line. On the procedure: as §1
The test system of another data set is DU145 cells. Description: Cell cycle arrest (PI, flow cytometry). The conditions noted are these: 24 h. In kind it is cell-based, human. On the procedure:
Cells were incubated with drugs for 24 h. Fixed cells were incubated with RNase A and stained with propidium iodide (PI). DNA content was determined in a flow cytometer (BD FACS CaliburTM Flow Cytometer, USA) ([23]).
In general terms: In flow cytometry, cells or beads pass a laser one at a time.

A short description of another data set: Hemolysis test. Format: cell-based, SD rats. The conditions noted are these: SD, rat, rat red blood cells, 2% (v/v) suspension, 37 °C, 1.5 h. The procedure: The hemolytic potential of CTX formulations was evaluated using rat red blood cells (RBCs). Briefly, whole blood was collected from the abdominal aorta of anesthetized SD rats into ACD anticoagulant (blood:ACD = 1:4, v/v). The blood was diluted with normal saline (4:5, v/v) and centrifuged at 450 g for 10 min. The RBC pellet was washed three times with normal saline until the supernatant was clear. The washed RBCs were then resuspended in normal saline to prepare a 2% (v/v) suspension.
For the assay, 500 μL of the 2% RBC suspension was mixed with an equal volume of serially diluted drugs or controls in 1.5 mL tubes. The controls included: Negative control (0% hemolysis): normal saline. Positive control (100% hemolysis): distilled water. Solvent control: the vehicle for unmodified CTX (2.5% Tween 80 + 2.5% anhydrous ethanol + 95% normal saline). The mixtures were incubated at 37 °C for 1.5 h and then centrifuged at 450 g for 5 min. Subsequently, 150 μL of the supernatant from each tube was transferred to a 96-well plate, and the absorbance at 545 nm (OD545) was measured using a microplate reader. The percentage of hemolysis was calculated using the following formula: Hemolysis (%) = [(ODsample - ODnegative control)/(ODpositive control - ODnegative control)] × 100.

Data set [1] has as its system DU145 prostate cancer model. Description: DU145 prostate cancer xenograft, tumor volume. In kind it is in vivo, BALB/c nude mice. Conditions: 3 μmol/kg tail vein, three times at 3-day intervals, control 500 ± 45 mm³. The procedure:
(§2) All animal experiments were conducted in accordance with protocols approved by the Institutional Animal Care and Use Committee of Peking Union Medical College. Male BALB/c nude mice (6–8 weeks old) and female KM mice (6–8 weeks old) were purchased from Charles River Laboratories (Beijing, China) and maintained under specific pathogen-free conditions.
DU145 Prostate cancer model: DU145 cells (3×10^6 cells/mouse) were subcutaneously inoculated into the right flank of BALB/c nude mic. When tumors reached approximately 100 mm³, mice were randomly divided into four treatment groups (n=6/group): (a) Vehicle control; (b) CTX (3 μmol/kg); (c) CTX-TTHA (3 μmol/kg); (d) CTX-DTPA (3 μmol/kg). Treatments were administered via tail vein injection three times at 3-day intervals. Major organs were collected for histopathological examination after the final administration.

The subject of a further data set is MCF-7 xenografts. Description: MCF-7 breast cancer xenograft, tumor volume. Format: in vivo, BALB/c nude mice. Conditions: MCF-7 xenograft, 9.6 μmol/kg. On the procedure: as §2
MCF-7 Breast Cancer Model: Female BALB/c nude mice bearing MCF-7 xenografts (2×10^6 cells/mouse) were randomized into treatment groups as described above, with an adjusted dose of 9.6 μmol/kg for all CTX formulations.

Data set [2] deals with H22 hepatocellular carcinoma tumors. Briefly: H22 hepatoma model, tumor growth inhibition. Format: in vivo, KM mice. Conditions: every other day. On the procedure:
H22 hepatoma model: Female KM mice were subcutaneously implanted with H22 cells (2×10^6 cells/mouse) and assigned to six groups: (a) Vehicle control; (b) CTX (9.6 μmol/kg in 5% glucose with 2.5% ethanol/2.5% Tween 80); (c) CTX-TTHA (9.6 μmol/kg in saline); (d) CTX-DTPA (9.6 μmol/kg in saline); (e) CTX-TTHA (19.1 μmol/kg in saline); (f) CTX-DTPA (19.1 μmol/kg in saline).
Treatments were administered every other day for four doses (three doses for CTX group due to weight loss >15%). Peripheral blood samples were collected for complete blood count analysis using an automated hematology analyzer.

A short description of data set [3]: Plasma pharmacokinetics (non-compartmental). The conditions noted are these: for AUC(0-t) / Cmax / Vd / clearance: both, SD, rat, iv, 6 umol/kg. The procedure: Male and female SD rats (200–220 g) received intravenous injections of CTX or CTX-DTPA (6 μmol/kg). CTX was dissolved in 2.5% Tween 80/2.5% EtOH/saline, while CTX-DTPA used saline alone. Blood samples were collected at 5 min to 24 h post-dose. Tissues (heart, liver, spleen, lung, kidney, thymus) and excreta were collected at 15 min, 2 h, 4 h, and 12 h. Plasma and tissue samples were processed by liquid-liquid extraction with n-butanol and analyzed via LC-MS/MS (Agilent Poroshell 120 EC-C18 column; 0.05% formic acid/acetonitrile gradient). Pharmacokinetic parameters were calculated using DAS 2.0 via non-compartmental analysis.

The mark [4] stands for this setting: SD rats, 6 μmol/kg iv, plasma, dosed compound itself.

As usually defined, the IC50 is the concentration at which inhibition is half-maximal. The AUC(0-t) is the area under the concentration-time curve up to a stated or last time point. Read a low AUC(0-t) as less exposure. The Cmax is the highest concentration seen after dosing. The Vd is the apparent volume that relates the amount in the body to the concentration in plasma or blood. A word on the clearance: it is the rate of elimination divided by the concentration. Read a low clearance as a low capacity for elimination.

For the molecule `CO[C@H]1C(=O)[C@]2(C)[C@@H](OC)C[C@H]3OC[C@@]3(OC(C)=O)[C@H]2[C@H](OC(=O)c2ccccc2)[C@]2(O)C[C@H](OC(=O)[C@H](O)[C@@H](NC(=O)OC(C)(C)C)c3ccccc3)C(C)=C1C2(C)C` [CTX, Cabazitaxel], the IC50 is 2.8 ± 0.5 nM in the data set with Bel-7402; 6.1 ± 2.4 nM in the data set with DU145; 1.6 ± 0.4 nM with Fadu; 1.2 ± 0.6 nM in the data set on H358; 2.4 ± 1.3 nM in the data set with H460; 1.5 ± 0.7 nM in the data set with H520. Further, the IC50 turned out to be 7.4 ± 3.4 nM in the data set on HT-29; 8.5 ± 2.3 nM with LN229; 5.3 ± 1.9 nM in the data set with MCF-7; 5.2 ± 1.7 nM in the data set with PC-3; 7.8 ± 1.5 nM with L-02. For the same molecule, the “cells arrested in G2/M” value with DU145 cells (DU145, 1 nM) worked out at 16.5 ± 0.7%; in the data set with DU145 cells (DU145, 25 nM), 65.5 ± 19.9%. Moreover, the hemolysis at 1.5 h, 4.7 nmol/mL in “Hemolysis test” (4.7 nmol/mL, read-out: hemolysis rate) amounted to 11 ± 3.2%. In addition, in the data set “Hemolysis test” (75 nmol/mL, read-out: hemolysis rate), the hemolysis at 1.5 h, 75 nmol/mL turned out to be 73.4 ± 5.8%. The final tumor volume in data set [1] came out at 254 ± 35 mm³. Besides, the “tumor volume at study endpoint” value with MCF-7 xenografts is recorded as 56 ± 12 mm³. The same molecule returned a tumor growth inhibition in [2] (H22, 9.6 μmol/kg, three doses) of 30.8%. In data set [3] (setting [4]), this molecule had an MRT0-t of 0.67 ± 0.09 H. In [3] (setting [4]), the t1/2 was 1.27 ± 0.09 H. The AUC(0-t) in [3] (plasma) turned out to be 1680 ± 194 ng·h/mL. Also, the peak level in data set [3] (plasma) (Cmax) was 2930 ± 990 ng/mL. The molecule also had a distribution volume (Vd) in data set [3] (plasma) of 5.53 ± 0.81 L/kg. In data set [3] (plasma), this molecule showed a clearance of 50.2 mL/min/kg.

In the case of `COC1C(=O)C2(C)C(OC)CC3OCC3(OC(C)=O)C2C(OC(=O)c2ccccc2)C2(O)CC(OC(=O)C(OC(=O)CN(CCN(CCN(CC(=O)O)CC(=O)O)CC(=O)O)CC(=O)O)C(NC(=O)OC(C)(C)C)c3ccccc3)C(C)=C1C2(C)C` (stereo not drawn) [CTX-DTPA], the IC50 in the data set on Bel-7402 was found to be 2.9 ± 0.9 nM; in the data set on DU145, 5.1 ± 1.4 nM; with Fadu it was 1.9 ± 0.6 nM; in the data set on H358, 1.6 ± 0.7 nM; in the data set on H460 it was 2.4 ± 1.1 nM; with H520 it was 2 ± 1.3 nM. The IC50 with HT-29 amounted to 6.7 ± 2.9 nM; in the data set with LN229, 5.8 ± 2.2 nM; in the data set with MCF-7, 6.8 ± 2.4 nM; with PC-3, 4.1 ± 0.7 nM; in the data set on L-02, 8.8 ± 3.6 nM. Moreover, the “cells arrested in G2/M” value with DU145 cells (DU145, 1 nM) is given as 16.4 ± 1.0%; in the data set with DU145 cells (DU145, 25 nM) it was 58.9 ± 16.1%. In addition, the hemolysis at 1.5 h, 300 nmol/mL in “Hemolysis test” (300 nmol/mL (maximum tested), read-out: hemolysis rate) stood at 12.1 ± 9.2%. Moreover, the hemolysis at 1.5 h in “Hemolysis test” (concentrations up to 150 nmol/mL) was less than 2%. Further, the final tumor volume in [1] worked out at 244 ± 32 mm³. In addition, the “tumor volume at study endpoint” value with MCF-7 xenografts is 111 ± 18 mm³. In addition, the tumor growth inhibition in [2] (H22, high dose 19.1 μmol/kg in saline, four doses) amounted to 80.5%. Besides, the “elimination half-life relative to CTX” value in data set [3] (SD rats, 6 μmol/kg iv, longer than CTX) came to 5.1 fold. This molecule also came in with an MRT0-t in data set [3] (setting [4]) of 1.04 ± 0.57 H. In data set [3] (in vivo), the AUC(0-t) is 1330 ± 777 ng·h/mL. In addition, the concentration in data set [3] (in vivo) peaked (Cmax) at 4360 ± 2880 ng/mL. In addition, the Vd in data set [3] (in vivo) was 69.9 L/kg. In addition, the clearance in data set [3] (in vivo) was determined as 126 mL/min/kg.
